Key:
[1] = biological target: T1, MAO (substrate 5-HT) (Rattus norvegicus, UniProt P21396); assay: in vitro MAO inhibition in rat brain homogenate, substrate 14C-serotonin (5-HT); type: biochemical; conditions: substrate 14C-serotonin (5-HT) 2.10^-4 Mol/l, pH 7.4, 37° C., preincubation 30 minutes, incubation 10 minutes, read-out: IC 50, 5-HT
T1 construct: 20 μl of rat brain homogenate; from tissue; host or cells: rat brain homogenate
T1 sequence (P21396 1-526): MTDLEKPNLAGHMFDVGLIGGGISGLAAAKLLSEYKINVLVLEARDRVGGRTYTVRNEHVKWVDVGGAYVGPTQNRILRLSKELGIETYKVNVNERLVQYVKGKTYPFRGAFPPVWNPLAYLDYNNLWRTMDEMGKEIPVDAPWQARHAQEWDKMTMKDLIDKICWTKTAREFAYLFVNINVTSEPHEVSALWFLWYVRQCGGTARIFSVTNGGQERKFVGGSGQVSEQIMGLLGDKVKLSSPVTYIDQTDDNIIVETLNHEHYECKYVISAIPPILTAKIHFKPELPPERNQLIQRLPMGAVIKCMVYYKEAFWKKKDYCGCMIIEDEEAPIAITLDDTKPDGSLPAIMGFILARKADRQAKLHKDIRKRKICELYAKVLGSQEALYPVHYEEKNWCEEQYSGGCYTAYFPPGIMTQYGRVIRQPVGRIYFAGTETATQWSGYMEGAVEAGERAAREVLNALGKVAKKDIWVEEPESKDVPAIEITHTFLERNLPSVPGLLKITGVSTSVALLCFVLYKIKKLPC
Experimental: (§1) The MAO inhibiting activity of the compounds in accordance with the invention can be determined using standard methods. Thus, the preparations to be tested were subjected to the in vitro test described hereinafter, which followed the method published by R. J. Wurtmann and J. A. Axelrod [Biochem. Pharmac. 12, 1439-1441 (1963)].
(§2) Isolated rat brains are homogenized in the ratio 1:4 (weight/volume) in 0.1 molar potassium phosphate buffer (pH 7.4). whereupon the homogenates are diluted in the ratio 1:4 (volume/volume) with the same buffer and stored at -20°. A mixture of the following composition is used for the incubation:
(§3) 100 μl of 1M phosphate buffer (pH 7.4);
(§4) 100 μl solubilizate of the substance to be tested in water or dimethyl sulfoxide;
(§5) 20 μl of rat brain homogenate; and as the substrate
(§6) 80 μl of ^14 C-serotonin (5-HT) or ^14 C-phenylethylamine (PEA), in each case 100,000 decays per minute, corresponding to a final concentration of 2.10^-4 Mol/l and, respectively, 2.10^-5 Mol/l.
(§7) Prior to the addition of the substrate a preincubation at 37° C. was effected for 30 minutes. The incubation (in the presence of the substrate) was also effected at 37° C. and lasted 10 minutes.
(§8) The reaction is stopped by the addition of 200 μl of 2N hydrochloric acid.
(§9) The deaminated product, depending on the use of 5-HT or of PEA as the substrate, is extracted by shaking for 10 minutes with 5 ml of diethyl ether or with 5 ml of n-heptane, whereupon the mixture is centrifuged, the aqueous phase is frozen in a dry-ice bath and the organic phase is poured into a counting glass.
(§10) The activity of the MAO in comparison to control homogenates (without substance to be tested) is determined on the basis of the β-counter value and the IC 50 is defined as that concentration of a substance to be tested which decreases the activity of the MAO in the substrate 5-HT or PEA to 50%.

[2] = biological target: T2, MAO (substrate PEA) (Rattus norvegicus, UniProt P19643); assay: in vitro MAO inhibition in rat brain homogenate, substrate 14C-phenylethylamine (PEA); type: biochemical; conditions: substrate 14C-phenylethylamine (PEA) 2.10^-5 Mol/l, pH 7.4, 37° C., preincubation 30 minutes, incubation 10 minutes
T2 construct: 20 μl of rat brain homogenate; from tissue; host or cells: rat brain homogenate
T2 sequence (P19643 1-520): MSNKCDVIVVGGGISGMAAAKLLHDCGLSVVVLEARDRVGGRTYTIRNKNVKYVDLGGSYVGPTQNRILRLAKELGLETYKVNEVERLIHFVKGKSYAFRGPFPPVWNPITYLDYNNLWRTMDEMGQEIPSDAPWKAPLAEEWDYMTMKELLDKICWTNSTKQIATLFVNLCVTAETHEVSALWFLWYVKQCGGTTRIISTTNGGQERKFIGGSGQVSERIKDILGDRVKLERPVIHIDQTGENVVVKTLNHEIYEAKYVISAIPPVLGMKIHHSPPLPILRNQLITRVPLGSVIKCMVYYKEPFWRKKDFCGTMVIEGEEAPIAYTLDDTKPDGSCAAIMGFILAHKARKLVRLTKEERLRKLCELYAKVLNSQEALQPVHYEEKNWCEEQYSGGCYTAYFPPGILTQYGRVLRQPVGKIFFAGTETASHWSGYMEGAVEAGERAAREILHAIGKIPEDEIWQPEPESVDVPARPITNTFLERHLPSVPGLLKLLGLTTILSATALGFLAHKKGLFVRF
Experimental: as §1, §2, §3, §4, §5, §6, §7, §8, §9, §10

IC50 [1] [nM]	IC50 [2] [nM]	SMILES
120	3600	NCCNC(=O)c1ncsc1-c1ccc(F)cc1F [5-(2,4-difluorophenyl)-4-thiazol, N-(2-aminoethyl)-5-(2,4-difluorophenyl)-4-thiazolecarboxamide]
40	> 10000	NCCNC(=O)c1ncsc1-c1ccccc1F [5-(2-fluorophenyl)-4-thiazol, N-(2-aminoethyl)-5-(2-fluorophenyl)-4-thiazolecarboxamide]
22	2000	NCCNC(=O)c1ncoc1-c1ccco1 [5-(2-furyl)-4-oxazol, N-(2-aminoethyl)-5-(2-furyl)-4-oxazolecarboxamide]
7	300	NCCNC(=O)c1ncsc1-c1cc(Cl)cc(Cl)c1 [5-(3,5-dichlorophenyl)-4-thiazol, N-(2-aminoethyl)-5-(3,5-dichlorophenyl)-4-thiazolecarboxamide]
20	> 10000	NCCNC(=O)c1ncsc1-c1cccc(F)c1 [5-(3-fluorophenyl)-4-thiazol, N-(2-aminoethyl)-5-(3-fluorophenyl)-4-thiazolecarboxamide]
< 10	> 100000	NCCNC(=O)c1ncoc1-c1ccc(Cl)cc1 [5-(4-chlorophenyl)-4-oxazol, N-(2-aminoethyl)-5-(4-chlorophenyl)-4-oxazolecarboxamide]
60	100000	NCCNC(=O)c1ncsc1-c1ccc(F)cc1 [5-(4-fluorophenyl)-4-thiazol, N-(2-aminoethyl)-5-(4-fluorophenyl)-4-thiazolecarboxamide]
20	20000	NCCNC(=O)c1ncsc1-c1ccccc1 [5-phenyl-4-thiazol, N-(2-aminoethyl)-5-phenyl-4-thiazolecarboxamide]

Reference: patent US5011849A, “Compounds for treating and preventing cognitive diseases and depression and methods of making same” (Hoffmann-La Roche Inc., priority 1988, dated 1991)
